Source: the supplement of paper PMC10307832

Tests used:
Test in all cases: relative viability (nuclei count vs DMSO), 5 days (fraction); higher = more cells survive
4EGI-1 + Lapatinib = compound: O=C(O)C(Cc1ccccc1[N+](=O)[O-])=NNc1nc(-c2ccc(Cl)c(Cl)c2)cs1 (mixture of isomers) [4EGI-1] + CS(=O)(=O)CCNCc1ccc(-c2ccc3ncnc(Nc4ccc(OCc5cccc(F)c5)c(Cl)c4)c3c2)o1 [Lapatinib] (partner 2 µM)
Method in brief: (§1)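 Dosing by pin tool came one day after lung cancer cell lines were seeded in 1536-well plates, using either one drug or a fixed anchor-drug dose plus five library-drug doses (not always all listed) in √10 steps. After 5 days, nuclei were counted on 4× images. Relative viability is treated-well nuclei count divided by vehicle-well nuclei count, and values are medians of duplicate plates.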

XMD8-85 + OSI-027 = compound: CN1CCN(CC1)C2=CC(=C(C=C2)NC3=NC=C4C(=N3)N(C5=CC=CC=C5C(=O)N4C)C)OC [XMD8-85] + COc1cccc2cc(-c3nc([C@H]4CC[C@H](C(=O)O)CC4)n4ncnc(N)c34)[nH]c12 [OSI-027] (partner 0.5 µM)
Method in brief: as §1

XMD8-85 + Pictilisib = compound: CN1CCN(CC1)C2=CC(=C(C=C2)NC3=NC=C4C(=N3)N(C5=CC=CC=C5C(=O)N4C)C)OC [XMD8-85] + CS(=O)(=O)N1CCN(Cc2cc3nc(-c4cccc5[nH]ncc45)nc(N4CCOCC4)c3s2)CC1 [Pictilisib] (partner 1 µM)
Method in brief: as §1

4EGI-1 + Dasatinib = compound: O=C(O)C(Cc1ccccc1[N+](=O)[O-])=NNc1nc(-c2ccc(Cl)c(Cl)c2)cs1 (mixture of isomers) [4EGI-1] + Cc1nc(Nc2ncc(C(=O)Nc3c(C)cccc3Cl)s2)cc(N2CCN(CCO)CC2)n1 [Dasatinib] (partner 0.075 µM)
Method in brief: as §1

| Cell Line | relative viability (4EGI-1 + Lapatinib; first compound 0.5 µM) | relative viability (4EGI-1 + Lapatinib; first compound 1.581 µM) | relative viability (4EGI-1 + Lapatinib; first compound 5 µM) | relative viability (4EGI-1 + Lapatinib; first compound 15.81 µM) | relative viability (4EGI-1 + Lapatinib; first compound 50 µM) | relative viability (XMD8-85 + OSI-027; first compound 0.08 µM) | relative viability (XMD8-85 + OSI-027; first compound 0.253 µM) | relative viability (XMD8-85 + OSI-027; first compound 0.8 µM) | relative viability (XMD8-85 + OSI-027; first compound 2.53 µM) | relative viability (XMD8-85 + OSI-027; first compound 8 µM) | relative viability (XMD8-85 + Pictilisib; first compound 0.08 µM) | relative viability (XMD8-85 + Pictilisib; first compound 0.253 µM) | relative viability (XMD8-85 + Pictilisib; first compound 0.8 µM) | relative viability (XMD8-85 + Pictilisib; first compound 2.53 µM) | relative viability (XMD8-85 + Pictilisib; first compound 8 µM) | relative viability (4EGI-1 + Dasatinib; first compound 0.5 µM) | relative viability (4EGI-1 + Dasatinib; first compound 1.581 µM) | relative viability (4EGI-1 + Dasatinib; first compound 5 µM) | relative viability (4EGI-1 + Dasatinib; first compound 15.81 µM) | relative viability (4EGI-1 + Dasatinib; first compound 50 µM) |
| --- | --- | --- | --- | --- | --- | --- | --- | --- | --- | --- | --- | --- | --- | --- | --- | --- | --- | --- | --- | --- |
| 201T | 1.04 | 0.986 | 1.04 | 1.02 | 0.659 | 0.88 | 0.824 | 0.398 | 0.367 | 0.493 | 0.635 | 0.677 | 0.723 | 0.746 | 0.556 | 0.574 | 0.551 | 0.581 | 0.568 | 0.318 |
| A549 | 1.15 | 1.04 | 1.09 | 0.77 | 0.0791 | – | – | – | – | – | 0.517 | 0.516 | 0.591 | – | 0.483 | – | – | – | – | – |
| A-427 | 1.11 | 0.728 | 1.06 | 0.997 | 0.6 | 0.466 | 0.573 | 0.482 | 0.52 | 0.337 | 0.683 | 0.808 | 0.813 | 0.737 | 0.527 | 0.797 | 0.513 | 0.527 | 0.46 | 0.159 |
| ABC-1 | 1.06 | 1.46 | 1.24 | 1.17 | 1.16 | 0.473 | 0.296 | 0.546 | 0.526 | 0.41 | 0.628 | 0.614 | 0.942 | 0.746 | – | 0.585 | 0.501 | 0.586 | 0.38 | 0.192 |
| BEN | 0.786 | 0.854 | 0.734 | 0.573 | 0.612 | 0.439 | 0.344 | 0.274 | 0.264 | 0.307 | 0.535 | 0.547 | – | 0.483 | 0.38 | 0.328 | 0.302 | 0.329 | 0.282 | 0.233 |
| CAL-12T | – | – | 0.634 | 0.701 | 0.529 | 0.556 | 0.735 | 0.693 | 0.409 | 0.235 | 0.396 | 0.541 | 0.393 | 0.395 | 0.321 | 0.504 | 0.206 | 0.449 | 0.297 | 0.0969 |
| COR-L23 | 1.13 | 0.826 | 0.981 | 0.536 | 0.14 | 0.592 | – | 0.91 | 0.733 | 0.597 | 0.8 | 0.717 | 1.01 | 0.798 | 0.577 | 0.578 | 0.207 | 0.483 | 0.307 | 0.141 |
| COR-L 105 | 0.421 | 0.38 | 0.371 | 0.343 | 0.293 | 0.6 | – | 0.589 | 0.512 | 0.324 | 0.429 | 0.415 | 0.359 | 0.353 | 0.303 | 0.357 | 0.335 | 0.326 | 0.235 | 0.248 |
| Calu-6 | 1.07 | 1 | 1.03 | 1 | 0.206 | – | – | – | – | – | 1.02 | 0.97 | 1.05 | 0.979 | 0.572 | – | – | – | – | – |
| ChaGo-K-1 | – | – | – | – | – | 0.555 | 0.532 | 0.599 | 0.605 | 0.422 | 0.808 | 0.692 | 0.689 | 0.697 | 0.303 | 0.661 | 0.629 | 0.639 | 0.48 | 0.25 |
| EBC-1 | 0.205 | 0.246 | 0.201 | 0.217 | 0.166 | – | – | – | – | – | 0.383 | 0.364 | 0.502 | 0.339 | 0.18 | – | – | – | – | – |
| EKVX | 0.222 | 0.17 | 0.184 | 0.204 | 0.18 | 0.746 | 0.872 | 0.661 | 0.73 | – | 0.454 | 0.467 | 0.416 | 0.451 | 0.441 | 0.529 | 0.641 | 0.443 | 0.298 | 0.19 |
| EMC-BAC-2 | 1.06 | 0.744 | 0.89 | 0.913 | 0.88 | 0.358 | 0.385 | 0.368 | 0.404 | 0.313 | 0.493 | 0.569 | 0.527 | 0.589 | 0.451 | 0.369 | 0.298 | 0.361 | 0.362 | 0.296 |
| EPLC-272H | 1.03 | 0.501 | 0.909 | 0.624 | 0.39 | 0.282 | 0.251 | 0.266 | 0.305 | 0.27 | – | 0.324 | 0.318 | 0.327 | 0.267 | 0.504 | – | 0.34 | 0.252 | 0.138 |
| H3255 | 0.254 | 0.228 | 0.259 | 0.222 | 0.279 | 0.599 | 0.597 | 0.611 | 0.603 | 0.469 | 0.565 | 0.465 | – | 0.531 | 0.414 | 0.361 | 0.321 | 0.412 | 0.324 | 0.322 |
| HARA | 0.697 | 0.732 | 0.817 | 0.724 | 0.257 | 0.467 | 0.574 | 0.523 | 0.478 | 0.229 | 0.47 | 0.473 | 0.455 | 0.436 | 0.259 | 0.273 | 0.319 | 0.283 | 0.206 | 0.218 |
| HCC-15 | 0.949 | 0.914 | 0.871 | 0.8 | 0.423 | 0.615 | 0.689 | 0.669 | – | 0.541 | 0.684 | 0.691 | 0.76 | 0.728 | 0.616 | 0.642 | – | 0.612 | 0.511 | 0.308 |
| HCC-44 | 0.985 | 0.802 | 0.929 | 0.809 | 0.366 | 0.51 | 0.55 | 0.46 | 0.456 | 0.3 | 0.616 | 0.548 | 0.767 | 0.783 | 0.452 | – | – | – | – | – |
